Laboratory results taken from patent US20240108740A1, “THERAPEUTIC COMPOSITIONS INCLUDING SPN10 AND USES THEREOF” (Stealth BioTherapeutics Inc., priority 2022, published 2024).
Residues, ends and D or L forms follow the SMILES beside them.

What was measured:
male C57BL mice = assay: Example 46: burn-induced liver apoptosis; type: in vivo, mouse
Method: Six-to-eight week old male C57BL mice will be subjected to 30% total body surface (TBSA) burn injury and subsequently injected daily with saline vehicle; peptide conjugates (5 mg/kg body weight); aromatic-cationic peptides (an equivalent molar dose of aromatic-cationic peptide based on the concentration of the aromatic-cationic peptide administered in the peptide conjugate treatment group); SPN10(s) (an equivalent molar dose of SPN10 based on the concentration of SPN10 administered in the peptide conjugate treatment group); or SPN10(s) in combination with aromatic-cationic peptides (e.g., an equivalent molar dose of SPN10 based on the concentration of SPN10 administered in the peptide conjugate treatment group and an equivalent molar dose of aromatic-cationic peptide based on the concentration of aromatic-cationic peptide administered in the peptide conjugate treatment group). A weight- and time-matched sham-burn group exposed to lukewarm (˜37° C.) will serve as controls. Liver tissues will be collected 1, 3, and 7 days after burn injury treatment and analyzed for apoptosis (TUNEL), activated caspase levels (Western blot), and caspase activity (enzymatic assay).

Sprague-Dawley rats = assay: Example 41: contrast-induced nephropathy in glycerol-induced rhabdomyolysis; type: in vivo, rat; settings: 25% glycerin + diatrizoate
Method: Animal model: This Example will utilize animals subjected to glycerol-induced rhabdomyolysis, as previously described. Parvez, et al., Invest. Radiol., 24:698-702 (1989); Duan, et al., Acta Radiologica, 41:503-507(2000). Sprague-Dawley rats with body weight of 300-400 g will be dehydrated for 24 hours followed by intramuscular (i.m.) injection of 25% glycerol solution (v/v) at the dose of 10 mL/kg. Twenty-four hours later, the animals will be administered a contrast dye with peptide conjugates, aromatic-cationic peptides, SPN10(s) with or without aromatic-cationic peptides, or control vehicle according to the following: 1) 25% glycerin+Saline+PBS (n=6), 2) 25% glycerin+diatrizoate+PBS (n=7), 3) 25% glycerin+diatrizoate+peptide conjugates (n=7), 4) 25% glycerin+diatrizoate+aromatic-cationic peptides (n=7), 5) 25% glycerin+diatrizoate+SPN10(s), and 6) 25% glycerin+diatrizoate+SPN10(s)+aromatic-cationic peptides. […] Samples will be analyzed by students t-test and differences will be considered significant at p<0.05.
Renal function: Renal function will be assessed by determining serum and urinary creatinine at baseline, 24 hours after dehydration, and 48 hours following contrast dye administration. Creatinine clearance will be calculated based on serum and urinary creatinine levels and urinary volume. Urinary albumin concentration will be determined using a competition ELISA assay.

[1] = tested on: rat model of radiocontrast dye-induced renal failure; assay: Example 39: radiocontrast dye-induced renal failure; type: in vivo
Method: Animal Model: A rat model of radiocontrast dye-induced renal failure as described by Agmon, et al., J. Clin. Invest. 94:1069-1075 (1994) will be used. As in humans, radiocontrast dyes are generally non-toxic when administered to animals with normal renal function. However, radiocontrast dyes can induce ARI in animals with impaired renal function. In this model, impaired renal function will be induced by the administration of indomethacin (10 mg/kg) and L-NAME (10 mg/kg). Animals will be assigned to one of the following groups:
2. Indomethcin and L-NAME administered 15 minutes apart, followed by iothalamate (6 mL/kg) (n=7)
3. peptide conjugates (3 mg/kg, i.p.) administered 15 minutes prior to indomethacin/L-NAME/iothalamate administration as described in Group 2; second dose of peptide conjugates (3 mg/kg) administered immediately after drug exposure (n=9).
4. aromatic-cationic peptides (an equivalent molar dose of aromatic-cationic peptide based on the concentration of the aromatic-cationic peptide administered in the peptide conjugate treatment group) administered 15 minutes prior to indomethacin/L-NAME/iothalamate administration as described in Group 2; second dose of aromatic-cationic peptides (an equivalent molar dose of aromatic-cationic peptide based on the concentration of the aromatic-cationic peptide administered in the peptide conjugate treatment group) administered immediately after drug exposure (n=9).
5. […]
Renal Function: Renal function will be assessed by determining GFR at baseline and 24 hours following dye administration. GFR will be determined by creatinine clearance which will be estimated over a 24 hour interval before and after dye administration. Creatinine clearance will be analyzed by measuring plasma and urinary creatinine levels (Bioassay Systems; DICT-500) and urine volume.
Renal Histology: Kidneys will be fixed in 10% neutral-buffered formalin and embedded in paraffin wax for sectioning. Three-micron sections will be stained with hematoxylin-eosin (H&E) and periodic acid-Schiff (PAS) and analyzed by light microscopy by a board certified pathologist. […]

For `N=C(N)NCCC[C@H](NC(=O)[C@@H](N)Cc1c[nH]c2ccccc12)C(=O)N[C@@H](Cc1c[nH]c2ccccc12)C(=O)N[C@@H](CCCCN)C(N)=O` [SPN10, H-L-Trp-L-Arg-L-Trp-L-Lys-NH2] (H-WRWK-NH2), the “rate of apoptosis in the liver after burn (TUNEL)” value (male C57BL mice; 30% TBSA burn, days 1, 3, 7) was “attenuate or prevent this effect”, the “protein oxidation following burn injury” value (male C57BL mice; compared to burn control subjects) was “decrease in protein oxidation” and the “caspase-3 activation (Western blot)” value (male C57BL mice; days 3 and 7 post-burn) was “attenuate or suppress caspase-3 activation”. For the same compound, the “caspase activity (enzymatic assay)” value (male C57BL mice; post-burn day 7) was “reduce caspase activity to a level not statistically different from that of sham control group”, the “albuminuria after contrast dye” value (Sprague-Dawley rats) was “attenuate or prevent albuminuria” and the “creatinine clearance after contrast dye” value (Sprague-Dawley rats) was “attenuate or prevent reduced creatinine clearance”. The “loss of proximal tubule brush border, glomerular swelling and tubular protein cast deposition (PAS)” value (Sprague-Dawley rats) was “attenuate or prevent these effects”, the “number of apoptotic cells in contrast dye-exposed kidneys” value ([1]; TUNEL) was “reduce the number of apoptotic cells” and the “loss of renal brush border and vacuolization (PAS)” value ([1]; contrast dye-exposed kidneys) was “attenuated”. The “decline in renal function (GFR) after contrast dye” value ([1]; indomethacin, L-NAME, iothalamate, treatment before and after dye) was “reduce the decline in renal function”.
